Assay results reported in US6844366B2, “Sulfonamide hydroxamates” (Syntex (U.S.A.) LLC, priority 1998, dated 2005).

SMILES	melting point [°C]
COC(=O)c1ccc(CN([C@@H](C(=O)NO)C(C)C)S(=O)(=O)c2ccc(OC)cc2)cc1 [Compound 21, N-Hydroxy-2(R)-[(4-methoxycarbonylbenzyl)-(4-methoxybenzenesulfonyl)amino]-3-methylbutyramide]	164 to 165
COc1cc(C)c(S(=O)(=O)N(Cc2ccc3c(c2)OCO3)[C@H](CNS(=O)(=O)c2ccccc2)C(=O)NO)c(C)c1 [Compound 129, N-hydroxy-2(R)-[(3,4-methylendioxybenzyl)-(2,6-dimethyl-4-methoxybenzenesulfonyl)amino]-3-benzenesulfonylamino-propionamide]	103 to 107
COC(=O)c1ccc(C(=O)NC[C@H](C(=O)NO)N(Cc2ccc3c(c2)OCO3)S(=O)(=O)c2c(C)cc(OC)cc2C)cc1 [Compound 133, N-hydroxy-2(R)-[(3,4-methylendioxybenzyl)-(2,6-dimethyl-4-methoxybenzenesulfonyl)amino]-3-(4-methoxycarbonyl-benzoyl)amino-propionamide]	119 to 124
COc1cc(C)c(S(=O)(=O)N(Cc2ccc3[nH]ccc3c2)[C@@H](C(=O)NO)C(C)C)cc1C [Compound 145, N-hydroxy-2(R)-2-[(1H-indol-5-ylmethyl)-(4-methoxy-2,5-dimethylbenzenesulfonyl)-amino]-3-methylbutyramide]	117 to 121

The remaining lines, values ahead:

melting point [°C]	SMILES
95 to 105	COc1cc(C)c(S(=O)(=O)N(Cc2ccc3c(c2)OCO3)[C@@H](C(=O)NO)[C@H](C)O)c(C)c1C [Compound 87, N-hydroxy-2(R)-[(3,4-methylenedioxybenzyl)-(4-methoxy-2,3,6-trimethylbenzenesulfonyl)amino]-3(S)-hydroxybutyramide]
163 to 171	COc1cc(C)c(S(=O)(=O)N(Cc2ccc3[nH]cc(C(C)=O)c3c2)[C@@H](C(=O)NO)C(C)C)c(C)c1C [Compound 126, N-hydroxy-2(R)-[(1H-3-acetyl-indol-5-ylmethyl)-(4-methoxy-2,3,6-trimethylbenzenesulfonyl)amino]-3-methylbutyramide]
98 to 102	COc1cc(C)c(S(=O)(=O)N(Cc2ccc3c(c2)OCO3)[C@H](CNS(C)(=O)=O)C(=O)NO)c(C)c1 [Compound 128, N-hydroxy-2(R)-[(3,4-methylendioxybenzyl)-(2,6-dimethyl-4-methoxybenzenesulfonyl)amino]-3-(methanesulfonyl)amino-propionamide]
